Test results: ChEMBL document CHEMBL5352447, “Development of [1,2]oxazoloisoindoles tubulin polymerization inhibitors: Further chemical modifications and potential therapeutic effects against lymphomas” (Eur J Med Chem, 2022)
pIC50: −log10 of the molar value. Activity calls are given as the source filed them. No cut-off for these calls is given here.

How the values were obtained:
[1] = system: SU-DHL10; assay: Antiproliferative activity against human SU-DHL-10 cells assessed as inhibition of cell proliferation incubated for 72 hrs by MTT assay; assay type: functional, cell-based; conditions: SU-DHL10, 72 h
[2] = system: VL51; assay: Antiproliferative activity against human VL51 cells assessed as inhibition of cell proliferation incubated for 72 hrs by MTT assay; assay type: functional, cell-based; conditions: VL51, 72 h
[3] = target: Tubulin (Homo sapiens) (UniProt P68371+Q9H4B7+P0DPH7+P68366+Q13509+Q71U36+P04350+Q3ZCM7+P07437+P68363+Q9BQE3+Q6PEY2+Q13885+Q9BVA1+Q9BUF5); assay: Inhibition of [3H]Colchicine binding to tubulin (unknown origin) at 5 uM relative to control; assay type: protein-complex assay
[4] = target: Tubulin; assay: Inhibition of tubulin assembly (unknown origin); assay type: protein-complex assay, Homo sapiens
[5] = Antiproliferative activity against human MINO cells assessed as proliferating cells at 1 uM incubated for 72 hrs by MTT assay relative to control; assay type: functional
[6] = system: MCF7; assay: Cytotoxicity against human MCF7 cells assessed as cell growth inhibition; assay type: functional, cell-based
[7] = system: VL51; assay: Antiproliferative activity against human VL51 cells assessed as proliferating cells at 1 uM incubated for 72 hrs by MTT assay relative to control; assay type: functional
[8] = system: SU-DHL10; assay: Antiproliferative activity against human SU-DHL-10 cells assessed as proliferating cells at 1 uM incubated for 72 hrs by MTT assay relative to control; assay type: functional
[9] = Antiproliferative activity against human HBL1 cells assessed as inhibition of cell proliferation incubated for 72 hrs by MTT assay; assay type: functional, cell-based; conditions: HBL1, 72 h
[10] = Antiproliferative activity against human HBL1 cells assessed as proliferating cells at 1 uM incubated for 72 hrs by MTT assay relative to control; assay type: functional
[11] = Antiproliferative activity against human MINO cells assessed as inhibition of cell proliferation incubated for 72 hrs by MTT assay; assay type: functional, cell-based
[12] = system: VL51; assay: Induction of cell cycle arrest in human VL51 cells assessed as accumulation at subG0 phase at early time point at 50 to 500 nM incubated upto 72 hrs by […]; assay type: functional; conditions: dose 50-500 nM
[13] = system: PBMC; assay: Induction of apoptosis in human PBMC cells at 500 nM incubated for 24 to 48 hrs by annexin V staining based analysis relative to control; assay type: toxicity, cell-based; conditions: 0.5 µM, time 24-48 hrs
[14] = system: MINO; assay: Induction of cell cycle arrest in human MINO cells assessed as accumulation at subG0 phase at early time point at 50 to 500 nM incubated upto 72 hrs by […]; assay type: functional; conditions: dose 50-500 nM
[15] = system: MINO; assay: Induction of apoptosis in human MINO cells at 50 to 500 nM incubated for 24 to 72 hrs by annexin V-FITC/PI staining based analysis; assay type: functional, cell-based; conditions: dose 50-500 nM, time 24-72 hrs
[16] = system: MINO; assay: Induction of cell cycle arrest in human MINO cells assessed as accumulation at G2/M phase at 50 nM incubated for 24 to 72 hrs by […]; assay type: functional; conditions: time 24-72 hrs
[17] = system: VL51; assay: Induction of apoptosis in human VL51 cells at 50 to 500 nM incubated for 24 to 72 hrs by annexin V-FITC/PI staining based analysis; assay type: functional, cell-based; conditions: dose 50-500 nM, time 24-72 hrs
[18] = system: VL51; assay: Induction of cell cycle arrest in human VL51 cells assessed as accumulation at G2/M phase at 50 nM incubated for 24 to 72 hrs by […]; assay type: functional; conditions: time 24-72 hrs
[19] = system: MINO; assay: Upregulation of CCNB2 in human MINO cells at 100 nM incubated for 8 to 24 hrs by RNA sequencing analysis; assay type: functional, cell-based; conditions: time 8-24 hrs
[20] = system: MINO; assay: Upregulation of CENPA in human MINO cells at 100 nM incubated for 8 to 24 hrs by RNA sequencing analysis; assay type: functional, cell-based; conditions: time 8-24 hrs
[21] = system: MINO; assay: Upregulation of AURKA in human MINO cells at 100 nM incubated for 8 to 24 hrs by RNA sequencing analysis; assay type: functional, cell-based; conditions: time 8-24 hrs
[22] = system: MINO; assay: Upregulation of BIRC5 in human MINO cells at 100 nM incubated for 8 to 24 hrs by RNA sequencing analysis; assay type: functional, cell-based; conditions: time 8-24 hrs
[23] = system: MINO; assay: Upregulation of CENPE in human MINO cells at 100 nM incubated for 8 to 24 hrs by RNA sequencing analysis; assay type: functional, cell-based; conditions: time 8-24 hrs
[24] = system: MINO; assay: Upregulation of CCNB1 in human MINO cells at 100 nM incubated for 8 to 24 hrs by RNA sequencing analysis; assay type: functional, cell-based; conditions: time 8-24 hrs
[25] = system: MINO; assay: Upregulation of PLK1 in human MINO cells at 100 nM incubated for 8 to 24 hrs by RNA sequencing analysis; assay type: functional, cell-based; conditions: time 8-24 hrs

| pIC50 [1] | inhibition [3] | pIC50 [4] | SMILES | pIC50 [2] | Activity [5] | pIC50 [6] | Activity [7] | Activity [8] | pIC50 [9] | Activity [10] | pIC50 [11] | further results |
| --- | --- | --- | --- | --- | --- | --- | --- | --- | --- | --- | --- | --- |
| 6.55 | 77% | 5.68 | COc1ccc(Cn2cc3c(c2-c2ccccc2)CCc2cnoc2-3)cc1 | 6.57 | 8.4% | 6.42 | 40.9% | 13% | 6.60 | 21.5% | 6.64 |  |
|  | 55% | 5.82 | COc1ccc(Cn2cc3c(c2-c2ccccc2)CCc2cnoc2-3)cc1[N+](=O)[O-] |  |  | 6.47 |  |  |  |  |  |  |
|  |  | 5.10 | CCOC(=O)c1c2c(cn1Cc1ccc(OC)cc1)-c1oncc1CC2 |  |  | < 5.30 |  |  |  |  |  |  |
| 7.15 | 80% | 5.64 | COc1cc(Cn2cc3c(c2)-c2oncc2CC3)cc(OC)c1OC | 6.92 | 8.6% | 6.68 | 28.1% | 13.8% | 7.10 | 7.3% | 7.15 | Activity [12]: Active; Activity [13]: 15%; Activity [14]: Active; Activity [15]: Active; Activity [16]: Active; Activity [17]: Active; Activity [18]: Active |
| 7.52 | 88% | 5.55 | COc1cc(Cn2cc3c(c2)-c2oncc2CC3)cc(OC)c1 | 7.40 | 0.8% | 6.54 | 38% | 30.5% | 7.70 | 7.1% | 7.70 | Activity [12]: Active; Activity [19]: Active; Activity [20]: Active; Activity [13]: 15%; Activity [21]: Active; Activity [14]: Active; Activity [22]: Active; Activity [23]: Active; Activity [24]: Active; Activity [15]: Active; Activity [16]: Active; Activity [25]: Active; Activity [17]: Active; Activity [18]: Active |
| 5.77 | 55% | 5.70 | COc1ccc(Cn2cc3c(c2-c2ccc(OC)cc2)CCc2cnoc2-3)cc1 | 5.96 | 29.9% | < 5.30 | 49.4% | 47.4% | 5.92 | 57.1% | 5.96 |  |
| 7.00 | 57% | 5.77 | COc1ccc(Cn2cc3c(c2-c2cc(OC)c(OC)c(OC)c2)CCc2cnoc2-3)cc1N | 7.00 | 9.31% | 6.62 | 34.7% | 12% | 7.05 | 12.9% | 7.15 |  |
| 6.59 | 72% | 5.77 | COc1ccc(Cn2cc3c(c2-c2ccccc2)CCc2cnoc2-3)cc1N | 6.60 | 10.5% | 6.43 | 37.6% | 13% | 6.57 | 27.6% | 6.64 |  |
|  |  | 4.92 | COc1ccc(Cn2cc3c(c2-c2ccccc2)CCc2c(CN4CCCC4)noc2-3)cc1 |  |  | < 5.30 |  |  |  |  |  |  |
|  |  |  | COc1ccc(/C=C\c2cc(OC)c(OC)c(OC)c2)cc1O [COMBRETASTATIN A4] |  |  | 7.74 |  |  |  |  |  |  |
| 6.10 | 69% | 5.28 | COc1cccc(Cn2cc3c(c2)-c2oncc2CC3)c1 | 6.00 | 8.9% | 6.26 | 44.7% | 14% | 6.15 | 37.9% | 6.15 |  |
| 6.30 | 34% | 5.49 | COc1ccc(Cn2cc3c(c2-c2cc(OC)c(OC)c(OC)c2)CCc2cnoc2-3)cc1 | 6.57 | 8.7% | 6.22 | 37.9% | 12.7% | 6.33 | 30.7% | 6.43 |  |
|  | 21% | 5.34 | c1ccc(Cn2cc3c(c2-c2ccccc2)CCc2cnoc2-3)cc1 |  |  | < 5.30 |  |  |  |  |  |  |
|  | 34% | 5.47 | COc1ccc(Cn2cc3c(c2-c2ccccc2)CCc2cnoc2-3)cc1OC |  |  | 5.35 |  |  |  |  |  |  |
